In data set [1] the test system is granulation tissue formation caused by implantation of cotton pellets. The experiment in a line: Granuloma formation test (local cotton pellet granuloma assay). The class given is in vivo, rat. The note with it: Table III. The protocol:
The test compound was dissolved in acetone and aliquots of varying concentrations were injected into cotton pellets. The pellets were dried and then one pellet was implanted beneath the skin of each test rat. Six days later, the animals were sacrificed and the granulation tissue (granuloma) which formed in and around the implanted pellet was removed, dried and weighed. In addition, the thymi and adrenals were removed and weighed.

The test system of data set [2] is blanching in humans. The experiment in a line: McKenzie-type human blanching studies. The class given is in vivo. The note with it: forearm, 6 hours occlusion. Here is the method: McKenzie-type human blanching studies were undertaken to study the blanching effects of a representative test compound of the invention, chloromethyl 17α-ethoxycarbonyloxy-11β-hydroxyandrost-4-en-3-one-17β-carboxylate.
The test compound was dissolved in ethanol/isopropyl myristate (90/10 or 70/30) at 0.03, 0.01, 0.003, 0.001 and 0.0003 M concentrations. 50 Microliter aliquots of each solution were applied to separate gauze portions of a bandage of the type commonly used for allergy testing and the bandage was applied to the forearm. After 6 hours of occlusion, the bandage was removed.

Data set [3] deals with ear swelling induced by croton oil. Description: Ear edema test. In kind it is in vivo, rat. The note with it: for Ear Weight, % Increase / Ear Weight, % Inhibition / Ear Weight, Inflamed Ear / Ear Weight, Untreated Ear: 6 hr; for Relative organ weight Adrenals / Relative organ weight Thymus: 48 hours. Here is the method:
The test animals were Sprague/Dawley rats weighing approximately 150 grams each. In treatment groups, selected amounts of the test compound were dissolved in acetone containing 5% croton oil and 50 microliters of the solution were applied to the inner surface of the right ear of the rats. A control group was identically treated with vehicle only, i.e. 5% croton oil in acetone. Six hours after croton oil challenge, a constant region of each ear was removed by dissection under anesthesia. Then, 48 hours after steroid treatment, the animals were sacrificed and the thymi and adrenals were removed and weighed. The test results showing the inhibitory effect of topically applied steroids on the ear swelling induced by croton oil are summarized in Table II below.

Data set [4] concerns thymus weight in rats. The experiment in a line: Thymus involution test (topically administered steroids, thymus weight in rats). As to conditions: 0.75 μmol topical on ear, after 24 hours.
Procedure: The test animals were female Sprague/Dawley rats weighing approximately 40-45 grams each. One side of each ear of each rat was treated with a total of 25 microliters of a solution (ethanol/isopropyl myristate or acetone/isopropyl myristate, 90/10) containing the amount of test compound indicated below. Animals which were treated identically, save for omission of the test compound, served as controls. After 24 hours, all rats were sacrificed and weighed, and their thymi were removed and weighed.
The lower the weight of the thymi, the greater the systemic activity.

Several values for one entry are separate records, joined by “and”; a condition that tells them apart may be missing. Equal values may be shown once.

What is called melting point is the temperature, or range, at which the solid turns liquid.

As for `CCOC(=O)O[C@]1(C(=O)OCSC)CCC2C3CCC4=CC(=O)CCC4(C)C3C(O)CC21C` (stereo partly shown), the melting point is 133 to 136 °C and 137.5 to 138 °C.

`CC(C)OC(=O)OC1(C(=O)OCCl)[C@H](C)C[C@H]2[C@@H]3CCC4=CC(=O)C=C[C@]4(C)[C@@]3(F)C(=O)C[C@@]21C` (stereo partly shown) came in with a melting point of 138 to 140 °C.

For the compound `COC(=O)O[C@]1(C(=O)OCCl)CCC2C3CCC4=CC(=O)CCC4(C)C3C(O)CC21C` (stereo partly drawn) [chloromethyl 11β-hydroxy-17α-methoxycarbonyloxyandrost-4-en-3-one-17β-carboxylate], the melting point lay in the range of 171 to 173 °C. In addition, in data set [1] (1 mg/pellet), the “Granulation tissue Dry wt.” value came out at 24.6 ± 2.6 mg/100 g body wt and the “Granulation tissue Inhibition” value amounted to 43.7%.

Consider `CCOC(=O)O[C@]1(C(=O)OCCl)CC[C@H]2[C@@H]3CCC4=CC(=O)CC[C@]4(C)[C@H]3[C@@H](O)C[C@@]21C` [chloromethyl 17α-ethoxycarbonyloxy-11β-hydroxyandrost-4-en-3-one-17β-carboxylate], for which the blanching result in data set [2] (0.03 to 0.0003 M, 50 microliter, read 1 to 5 hours after removal) is “blanching was observed even at the lowest concentrations”. The “concentration causing approximately the same degree of blanching” value in data set [2] (direct comparison) is around 0.001 M. Besides, in data set [3] (0.3 mg/kg topical), the “Ear Weight, % Increase” value is reported as 23.3 ± 7.2 %; the “Ear Weight, % Inhibition” value stood at 62.1%; the “Ear Weight, Inflamed Ear” value turned out to be 62.2 ± 3.0 mg; the “Ear Weight, Untreated Ear” value was 50.8 ± 2.4 mg. In data set [3] (0.3 mg/kg topical), the “Relative organ weight Adrenals” value is given as 26.0 ± 2.5 mg/100 g body wt and the “Relative organ weight Thymus” value was determined as 290 ± 25 mg/100 g body wt. Besides, in data set [3] (1 mg/kg topical), the “Ear Weight, % Increase” value was determined as 14.0 ± 6.5 %; the “Ear Weight, % Inhibition” value is 77.2%; the “Ear Weight, Inflamed Ear” value amounted to 55.0 ± 2.6 mg; the “Ear Weight, Untreated Ear” value was determined as 48.4 ± 1.0 mg. For the same compound, in data set [3] (1 mg/kg topical), the “Relative organ weight Adrenals” value turned out to be 18.7 ± 1.4 mg/100 g body wt and the “Relative organ weight Thymus” value is 293 ± 21 mg/100 g body wt. In addition, in data set [3] (3 mg/kg topical), the “Ear Weight, % Increase” value was found to be 3.7 ± 8.1 %; the “Ear Weight, % Inhibition” value is 94.0%; the “Ear Weight, Inflamed Ear” value stood at 52.6 ± 1.8 mg; the “Ear Weight, Untreated Ear” value came to 51.6 ± 3.2 mg. Besides, in data set [3] (3 mg/kg topical), the “Relative organ weight Adrenals” value amounted to 20.3 ± 0.8 mg/100 g body wt and the “Relative organ weight Thymus” value is 288 ± 21 mg/100 g body wt. For the same compound, in data set [3] (topical, Table II), the “swelling of the ear caused by croton oil (in words)” value was “substantially inhibited the swelling” and the “thymus weight as compared to the control (in words)” value is reported as “did not significantly decrease the thymus weight as compared to the control”. Moreover, in data set [1] (0.1 mg/pellet), the Body wt. gain is on record as 36.0 ± 2.8 g, the “Granulation tissue Dry wt.” value came to 34.7 ± 4.3 mg/100 g body wt, the “Granulation tissue Inhibition” value is on record as 20.6% and the “Relative organ weight Adrenals” value stood at 22.9 ± 2.6 mg/100 g body wt. Besides, in data set [1] (0.1 mg/pellet), the “Relative organ weight Adrenals (Decrease %)” value is reported as “(3.4) %”, the “Relative organ weight Thymus” value is given as 282 ± 13 mg/100 g body wt and the “Relative organ weight Thymus (Decrease %)” value is “(13.5) %”. Also, in data set [1] (0.3 mg/pellet), the Body wt. gain came out at 33.0 ± 1.3 g, the “Granulation tissue Dry wt.” value is on record as 25.3 ± 2.3 mg/100 g body wt, the “Granulation tissue Inhibition” value was found to be 42.1% and the “Relative organ weight Adrenals” value turned out to be 22.8 ± 1.0 mg/100 g body wt. Further, in data set [1] (0.3 mg/pellet), the “Relative organ weight Adrenals (Decrease %)” value is on record as “(3.8) %”, the “Relative organ weight Thymus” value is recorded as 298 ± 16 mg/100 g body wt and the “Relative organ weight Thymus (Decrease %)” value is “(8.6) %”. In addition, in data set [1] (1 mg/pellet), the Body wt. gain is listed as 32.8 ± 0.9 g, the “Granulation tissue Dry wt.” value came out at 14.0 ± 1.8 mg/100 g body wt, the “Granulation tissue Inhibition” value came to 68.0% and the “Relative organ weight Adrenals” value is given as 21.8 ± 1.3 mg/100 g body wt. For the same compound, in data set [1] (1 mg/pellet), the “Relative organ weight Adrenals (Decrease %)” value is “(8.0) %”, the “Relative organ weight Thymus” value is given as 304 ± 10 mg/100 g body wt and the “Relative organ weight Thymus (Decrease %)” value is given as “(6.7) %”. In data set [1] (3 mg/pellet), the Body wt. gain is 30.7 ± 1.5 g, the “Granulation tissue Dry wt.” value came out at 18.7 ± 2.3 mg/100 g body wt, the “Granulation tissue Inhibition” value turned out to be 57.2% and the “Relative organ weight Adrenals” value is given as 19.6 ± 1.1 mg/100 g body wt. Also, in data set [1] (3 mg/pellet), the “Relative organ weight Adrenals (Decrease %)” value was “(17.3) %”, the “Relative organ weight Thymus” value is 278 ± 21 mg/100 g body wt and the “Relative organ weight Thymus (Decrease %)” value was “(14.7) %”. In addition, in data set [4], the “Total Weight per Rat, % Gain ± SD” value was determined as 33 ± 6%; the “Total Weight per Rat, Final” value is reported as 60.60 g; the “mg Thymus ± SD / 100 g Rat” value was 309 ± 24 mg/100 g.

Source of the values: US6610675B1 (priority 1980, dated 2003).
